# In patent US20250205204A1, “Transcription Factor Brn2 Inhibitory Compounds for Use as Therapeutics” (The University of British Columbia, priority 2021, published 2025):
# Like-named read-outs stand apart in the source and are kept apart here.
# Assays:
# [1] = Metabolic stability in liver microsomes (MLM); assay type: in vitro ADME, mice; settings: 0.25 mg/mL protein; for half-life at 1 μM: mouse, liver microsomes, pH 7.4, 1 μM compound, read-out: T1/2 in mins (MLM); for Met Stab % (60 mins) MLM: percent remaining at 60 min, 1 μM compound, 1 mM NADPH
# Method: Preparation of Potassium Phosphate Buffer, 50 mM (pH 7.4)
# Potassium phosphate buffer (Kphos) was prepared by adding 0.647 g potassium phosphate monobasic (KH2PO4) and 3.527 g potassium phosphate dibasic (KH2PO4) to 400 mL of Milli-Q™ water. pH of the buffer was adjusted to 7.4 and volume was made up to 500 mL.
# Preparation of Microsomes
# Stock solutions of BRN2 inhibitors were prepared in DMSO at a concentration of 1 mM
# Preparation of NADPH Solution
# • Total Incubation volume: 100 μL • Compound concentration: 1 μM • Protein Concentration: 0.25 mg/mL • NADPH: 1 mM • Final DMSO contain: 0.1% • Number of replicates: 2 • Time points: 0, 5, 15, 30 and 60 min
# From the above mix, 70 μL was added to individual wells of 96 well reaction plates and pre-incubated in a 37° C. water bath for 5 min. […] Reactions without NADPH and buffer controls (minus NADPH) at 0 min and 60 min were also incubated to rule out non-NADPH metabolism or chemical instability in the incubation buffer. All reactions were terminated using 100 μL of ice-cold acetonitrile containing internal standard at 0, 5, 15, 30 and 60 min.
# Samples were monitored for parent compounds disappearance in MRM mode using LC-MS/MS.
# The percent remaining of test compounds and positive control in each sample was determined by considering peak area ratio in the 0 minute sample as 100%. The Half-life of compounds in microsomes is calculated by formula: […]
# In vitro intrinsic clearance (CL'int) (units in mL/min/kg) was calculated using the formula.
# [formula] • For liver microsomes, scaling factor used was 45 mg microsomal protein per gm liver. • * Indicates liver weight (gm) which varies species wise. For mice the liver weights are 90 gm.
# 42D^ENZR cells = test: Cell proliferation, BRN2 expressing 42D cells (crystal violet); assay type: cell-based; settings: for Growth Specificity: 42D (express BRN2) versus 16D (no BRN2) cells, result in words
# Method: Step 3: Cell Proliferation
# Plate 42DE^NZR (˜7000 cells per well) and 16D^CRPC (˜5000 cells per well) cells in 96 well plate with a volume of 100 μL per well. • 2. Next day 1 mL aliquots of media are combined with 3× the desired concentration of compounds. The aliquots are vortexed and 50 μL of each 3× concentration is added to the 100 μL of media in each well to give the ix desired concentration.
# The following are the desired concentrations:
# Approximately 72 hours later, 17 μL of 10% Glutaraldehyde is added to each well and plates are placed on a shaker for 20-30 minutes. • 4. Media is washed off the fixed cells by slow submersion in a container of water. Then the water is removed by tapping the plate upside down. • 5. 75 μL of Crystal Violet™ solution is added into the 96 well plates and placed on a shaker for ˜30 minutes. • 6. Media is washed off the fixed cells by repeated slow submersion in a container of water and the plates are allowed to dry over-night. • 7. Next day, 75 μL of Sorensen Solution is accurately pipetted into each well. The plates placed on a shaker for ˜30 minutes. • 8. Absorbance is measured in the plate at 590 nm.
# There is a distinction in TABLES 1 and 2 difference between “Active” and “Specific” or “Specificity”.
# [2] = read-out: IC50 (effective on both 42D and 16D cells)
# [3] = 42D cells, proliferation, about 72 hours, read-out: 42D IC50
Compound,half-life at 1 μM [1] [min],Met Stab % (60 mins) MLM [1] [%],Growth Specificity (42D^ENZR cells; about 72 hours),IC50 (42D^ENZR cells; [2]) [µM],IC50 (42D^ENZR cells; [3]) [µM]
CN(/N=C1\CCc2ccccc21)c1nc2ccccc2s1 [7-30],11,1,Non-specific. Effective on both 42D and 16D cells,,
c1ccc2c(c1)CC/C2=N/Nc1nccs1 [7-64],8,0,Not effective on 42D or 16D cells,,
FC1(F)Cc2ccccc2/C1=N/Nc1nc2ccccc2s1 [7-35],12,1,Not effective on 42D or 16D cells,,
O=C(Nc1nc2ccccc2s1)C1CCc2ccccc21 (centres unmarked) [7-51],12,1,Not effective on 42D or 16D cells,,
Fc1ccc2c(c1)/C(=N\Nc1nc3ccccc3s1)CC2 [7-56],8,0,effective on both 42D and 16D cells,10,
CC1(C)C/C(=N/Nc2nc3ccccc3s2)c2ccccc21 [7-53],13,4,effective on both 42D and 16D cells,10,
c1ccc(N/N=C2\CCc3ccccc32)nc1 [7-60],8,0,Not effective on 42D or 16D cells,,
N#Cc1ccc2nc(N/N=C3\CCc4ccccc43)sc2c1 [7-33],47,35,Non-specific. Effective on both 42D and 16D cells,,
"COC(=O)C1/C(=N/Nc2nc3ccccc3s2)Cc2ccccc21 (centres unmarked) [7-68, methyl (E)-2-(2-(benzo[d]thiazol-2-yl)hydrazineylidene)-2,3-dihydro-1H-indene-1-carboxylate]",< 5,0,not specific,,
Cc1nc(N/N=C2/CCc3ccccc32)sc1C [7-63],11,1,Not effective on 42D or 16D cells,,
c1ccc2c(c1)CCC2c1ccc(-c2nc3ccccc3s2)o1 (centres unmarked) [7-44],10,1,Not effective on 42D or 16D cells,,
O=c1c(=NNc2nc3ccccc3s2)c(=O)c2ccccc12 [7-85],32,25,Not specific,,
Clc1ccc2c(c1)/C(=N\Nc1nc3ccccc3s1)CC2 [7-38],8,1,Not effective on 42D or 16D cells,,
c1ccc2c(c1)Cc1nn(-c3nc4ccccc4s3)cc1-2 [7-37],16,7,Not effective on 42D or 16D cells,,
Clc1cccc2nc(N/N=C3\CCc4ccccc43)sc12 [7-34],6,0,Non-specific. Effective on both 42D or 16D cells,,
Fc1cccc2c1/C(=N\Nc1nc3ccccc3s1)CC2 [7-58],7,0,effective on both 42D and 16D cells,10,
CC1(C)Cc2ccccc2/C1=N\Nc1nc2ccccc2s1 [7-61],10,1,effective on both 42D and 16D cells,10,
O=C1/C(=N\Nc2nc3ccccc3s2)CC2C=CC=CC12 (centres unmarked) [7-41],33,28,Not effective on 42D or 16D cells,,
O=C(NNc1nc2ccccc2s1)C1Cc2ccccc2C1=O (centres unmarked) [7-86],19,18,Not specific,,
c1ccc2c(c1)CCC2c1cnn(-c2nc3ccccc3s2)c1 (centres unmarked) [7-43],10,1,Not effective on 42D or 16D cells,,
Fc1ccc2nc(N/N=C3/CCc4ccccc43)sc2c1 [7-47],7,0,Not effective on 42D or 16D cells,,
C/C(=N\Nc1nc2ccccc2s1)c1ccccc1C [7-54],,0,Not effective on 42D or 16D cells,,
c1ccc2c(c1)CC/C2=N/Nc1ccc2ccccc2c1 [7-48],22,14,Not effective on 42D or 16D cells,,
Cc1ccc2nc(N/N=C3/CCc4ccccc43)sc2c1 [7-46],13,5,Not effective on 42D or 16D cells,,
c1ccc2c(c1)CN(Nc1nc3ccccc3s1)C2 [7-49],14,1,Not effective on 42D or 16D cells,,

# Further lines, with some results ahead:
half-life at 1 μM [1] [min],Met Stab % (60 mins) MLM [1] [%],Compound,Growth Specificity (42D^ENZR cells; about 72 hours),IC50 (42D^ENZR cells; [2]) [µM],IC50 (42D^ENZR cells; [3]) [µM]
10,4,"O=C1/C(=N\Nc2ccc3ccccc3n2)Cc2ccccc21 [7-80, (Z)-2-(2-(quinolin-2-yl) hydrazineylidene)-2,3-dihydro-1H-inden-1-one]",Specific to 42D,,
16,8,"O=C1/C(=N\Nc2nc3ccccc3o2)Cc2ccccc21 [7-77, (Z)-2-(2-(benzo[d]oxazol-2-yl)hydrazineylidene)-2,3-dihydro-1H-inden-1-one]",Not specific,,
15,6,COc1ccc2c(c1)C/C(=N/Nc1nc3ccccc3s1)C2=O [7-99],Potent but effective on both 42D and 16D cells,,
44,33,"O=C1c2ccccc2CC1/C=N/Nc1nc2ccccc2s1 (centres unmarked) [7-69, (E)-2-((2-(benzo[d]thiazol-2-yl)hydrazineylidene)methyl)-2,3-dihydro-1H-inden-1-one]",not specific,,
> 60,94,O=C(O)c1cnc(N/N=C2/Cc3ccccc3C2=O)s1 [7-88],Not specific,,
32,32,O=C1/C(=N\Nc2nc(-c3ccccc3)cs2)Cc2ccccc21 [7-78],Not effective on 42D or 16D cells,,
> 60,82,O=C1/C(=N\Nc2nc3ccccc3s2)Cc2ccc(C(F)(F)F)cc21 [7-107],Low potency,,
6,2,Cn1c(N/N=C2/Cc3ccccc3C2=O)nc2ccccc21 [7-79],Specific but weak,,> 15
17,16,"O=C1/C(=N\Nc2cc3ccccc3s2)Cc2ccccc21 [7-83, (Z)-2-(2-(benzo[b]thiophen-2-yl)hydrazineylidene)-2,3-dihydro-1H-inden-1-one]",Not effective on 42D or 16D cells,,
33,26,O=C1/C(=N\Nc2nc3ccccc3s2)Cc2cc(-c3ccccc3)ccc21 [7-98],Specific to 42D,,~2
10,1,"O=C1/C(=N\Nc2nc3ccccc3[nH]2)Cc2ccccc21 [7-76, (Z)-2-(2-(1H-benzo[d]imidazol-2-yl)hydrazineylidene)-2,3-dihydro-1H-inden-1-one]",Not effective on 42D or 16D cells,,
> 60,98,O=C(O)c1csc(N/N=C2/Cc3ccccc3C2=O)n1 [7-87],Not specific,,
11,2,O=C1/C(=N\Nc2nc3ccccc3s2)CCc2ccccc21 [7-89],Not specific,,
